The text below walks through data of the supplement of paper PMC10307832.

What all share (assay): relative viability (nuclei count vs DMSO), 5 days (fraction); higher = more cells survive
Compound in assay [1]: COc1cc([C@@H]2c3cc4c(cc3[C@@H](O[C@@H]3O[C@@H]5CO[C@@H](C)O[C@H]5[C@H](O)[C@H]3O)[C@H]3COC(=O)[C@H]23)OCO4)cc(OC)c1O [Etoposide] + Cc1cc(Nc2cc(N3CCN(C)CC3)nc(Sc3ccc(NC(=O)C4CC4)cc3)n2)n[nH]1 [Tozasertib] (partner 0.1 µM)
An outline of the steps:
(§1)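 Values are medians from duplicate plates. Each reflects relative viability, defined as the nuclei count of treated wells over that of vehicle wells. Lung cancer cell lines in 1536-well plates were pin-tool dosed one day after seeding with one drug alone or with a fixed anchor-drug dose plus five library-drug doses (not always all listed) in √10 steps, then fixed, stained and imaged at 4× after 5 days.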

Compound in assay [2]: COc1cc([C@@H]2c3cc4c(cc3[C@@H](O[C@@H]3O[C@@H]5CO[C@@H](C)O[C@H]5[C@H](O)[C@H]3O)[C@H]3COC(=O)[C@H]23)OCO4)cc(OC)c1O [Etoposide] + Nc1ncn([C@H]2C[C@H](O)[C@@H](CO)O2)c(=O)n1 [Decitabine] (partner 2 µM)
An outline of the steps:
as §1

Compound in assay [3]: CC1=C(N=C(N=C1N)[C@H](CC(=O)N)NC[C@@H](C(=O)N)N)C(=O)N[C@@H]([C@H](C2=CN=CN2)OC3C(C(C(C(O3)CO)O)O)OC4C(C(C(C(O4)CO)O)OC(=O)N)O)C(=O)N[C@H](C)[C@H]([C@H](C)C(=O)N[C@@H]([C@@H](C)O)C(=O)NCCC5=NC(=CS5)C6=NC(=CS6)C(=O)NCCC[S+](C)C)O [Bleomycin] + CS(=O)(=O)CCNCc1ccc(-c2ccc3ncnc(Nc4ccc(OCc5cccc(F)c5)c(Cl)c4)c3c2)o1 [Lapatinib] (partner 2 µM)
To be noted: main component drawn. An outline of the steps:
as §1

Compound in assay [4]: CC1=C(N=C(N=C1N)[C@H](CC(=O)N)NC[C@@H](C(=O)N)N)C(=O)N[C@@H]([C@H](C2=CN=CN2)OC3C(C(C(C(O3)CO)O)O)OC4C(C(C(C(O4)CO)O)OC(=O)N)O)C(=O)N[C@H](C)[C@H]([C@H](C)C(=O)N[C@@H]([C@@H](C)O)C(=O)NCCC5=NC(=CS5)C6=NC(=CS6)C(=O)NCCC[S+](C)C)O [Bleomycin] + C[C@]1(O)C[C@@H](c2nc(-c3ccc4ccc(-c5ccccc5)nc4c3)c3c(N)nccn32)C1 [Linsitinib] (partner 1 µM)
The conditions noted are these: main component drawn. An outline of the steps:
as §1

Take UMC-11: the relative viability in assay [1] (first compound 0.01 µM) is 0.209; in assay [1] (first compound 0.03162 µM), 0.205; in assay [1] (first compound 0.1 µM), 0.186; in assay [1] (first compound 0.3162 µM), 0.206; in assay [1] (first compound 1 µM) it was 0.235; in assay [2] (first compound 0.01 µM), 0.462. The relative viability in assay [2] (first compound 0.03162 µM) was found to be 0.621; in assay [2] (first compound 0.1 µM), 0.355; in assay [2] (first compound 0.3162 µM), 0.356; in assay [2] (first compound 1 µM), 0.319; in assay [3] (first compound 0.01 µM), 0.879; in assay [3] (first compound 0.03162 µM), 0.819. Moreover, the relative viability in assay [3] (first compound 0.1 µM) is 0.971; in assay [3] (first compound 0.3162 µM), 0.737; in assay [3] (first compound 1 µM), 0.503; in assay [4] (first compound 0.01 µM) it was 0.975; in assay [4] (first compound 0.03162 µM), 0.91; in assay [4] (first compound 0.1 µM), 0.863. Further, the relative viability in assay [4] (first compound 0.3162 µM) turned out to be 0.647; in assay [4] (first compound 1 µM) it was 0.498.
